Source: patent publication US20260265341A1, “EPISYNCHRONS FOR PRECISION MEDICINE” (priority 2022, published 2026)
Marks after values point to notes of the source that are not given here. Primed or numbered codes have the meaning given here. Ends that are not written are not given here. * marks the point of attachment. GW4064″ = FXR ligand, CC(C)c1onc(-c2c(Cl)cccc2Cl)c1COc1ccc(/C=C/c2cccc(C(=O)*)c2)c(Cl)c1; RARβ/γ ligand = not defined here; Decanoyl = CCCCCCCCCC(=O)*; bexarotene″ = RXR ligand; GW4064(3) = FXR ligand; GW7647 = PPARα ligand

Columns and labels:
Format in all cases: cell-based
C2C12 myoblast cell line = assay: C2C12 myoblast differentiation assay (creatine kinase); design: CK (units/mg): unit not given here; settings: for CK (units/mg): peptide(s) 0.66 uM, no free added ligand, 96 h, relative to imm3SVD (=100)
Procedure: C2C12 myoblast cell line (ATCC, Manassas, VA) was cultured in DMEM medium supplemented with 10% FBS and 1% penicillin/streptomycin. For differentiation, cells were cultured in the same medium, except that 10% FBS was replaced by 2% horse serum. Peptides and NR ligands were added at the indicated concentrations and cells were harvested 96 hours later for assay. Cell extracts were assayed for creatine kinase (CK) per mg protein. CK was measured using the ECPK-100 kit from BioAssay Systems (Hayward, CA). Protein was assayed using the BCA protein assay kit from Thermofisher Scientific (Waltham, MA).

HFF-1 cell line = assay: Collagen stimulating activity (COL1A1 ELISA of supernatants); settings: peptide 2 uM, 72 hour, supernatant anti-COL1A1 ELISA
Procedure: Immodulin peptides have potential untility in the field of cosmetics. HFF-1 cell line from American Type Culture Collection (ATCC) was grown in DMEM Medium containing 10% fetal bovine serum and penicillin-streptomycin at 37° C. in a humidified, 5% CO2 incubator. 2,000 cells/well were plated in a 96-well plate and incubated overnight. 10 ul/well of peptides (2 uM final concentration) were added in quadruplicate wells. After 72 hour incubation with the compound, supernatants were collected and immunoreactivity was measured by ELISA using monoclonal anti-COL1A1 antibody (Abcam, Cambridge, MA). * p<0.05, ** p<0.01 vs no peptide.

A375 = assay: Cancer cell viability (CellTiterGlo), A375; settings: RXR modulators each at 0.5 uM with peptide imm3A1 0.66 uM, 72 hour; untreated=100
Procedure: (§1) A375, A549 and HuT78 cancer cell lines was obtained from American Type Culture Collection (ATCC). They were grown in a T-75 flask in DMEM (or IMDM, for HuT78) medium containing 10% fetal bovine serum and penicillin-streptomycin at 37° C. in a humidified, 5% CO2 incubator. Cells (100 µl, 2,000 cells/well; 5,000 cells/well for HuT78) were plated in a 96-well plate and incubated overnight at 37° C. in a humidified, 5% CO2 incubator. Next day, 10 ul/well of compounds were added (quadruplicate wells). After 72 hour incubation with the compound, cell viability was measured in a luminometer by addition of 100 µL/well CellTiterGlo reagent (Promega Inc, Madison, WI) and reading chemiluminescence after 10 mins, as recommended by the manufacturer. Peptide imm3A1 ([…]-[…]) was added at 0.66 uM and RXR modulators, each at 0.5 uM. The results of this experiment are shown below, expressed as percent survival of cells (untreated=100).

A549 = assay: Cancer cell viability (CellTiterGlo), A549; settings: RXR modulators each at 0.5 uM with peptide imm3A1 0.66 uM, 72 hour; untreated=100
Procedure: as §1

HuT78 = assay: Cancer cell viability (CellTiterGlo), HuT78; settings: RXR modulators each at 0.5 uM with peptide imm3A1 0.66 uM, 72 hour; untreated=100
Procedure: as §1

For “imm3fxr: SDKKGFYKKKQCRPSKGRKRGFCWSVDK with C-lig GW4064 (FXR ligand) (SDKKGFYKKKQCRPSKGRKRGFCWSVDK-{GW4064(3)}; cysteine pairing not given here)”, the “CK (units/mg)” value (C2C12 myoblast cell line) was 136.8 ± 19.6.

“imm3decK9adp: multisynchron SAFNSYELGSDKKGFYKKKQCRPSKGRKRGFCWS, N-lig PPARγ, C-lig RARβ/γ (Decanoyl-SAFNSYELGSDKKGFYKKKQCRPSKGRKRGFCWS-{RARβ/γ ligand}; cysteine pairing not given here; reading uncertain)” was tested, and the COL1 ng/ml (HFF-1 cell line) was 5.27 ± 0.36** ng/ml.

Compound IM3: peptide KKGFYKKKQCRPSKGRKRGFCW has a COL1 (HFF-1 cell line) of 0.28 ± 0.23 ng/mL.

With `CN1c2ccc([N+](=O)[O-])cc2N=C(c2ccc(C(=O)O)cc2)c2cc3c(cc21)C(C)(C)CCC3(C)C` [HX531] the “percent survival of cells, A375” value (A375) was 89.9 ± 1.6 a percent, the “percent survival of cells, A549” value (A549) was 89.2 ± 4.1 b percent and the “percent survival of cells, HuT78” value (HuT78) was 88.1 ± 0.8%.

With “imm3ppa: SDKKGFYKKKQCRPSKGRKRGFCWSVDK with C-lig GW7647 (PPARα ligand) on C-terminal lysine (SDKKGFYKKKQCRPSKGRKRGFCWSVDK(GW7647); cysteine pairing not given here)” the “CK (units/mg)” value (C2C12 myoblast cell line) was 155.9 ± 18.8.

For “IM3K9: peptide AFNSYELGSKGFYKKKQCRPSKGRKRGFCW”, the COL1 ng/ml (HFF-1 cell line) was 0.57 ± 0.13** ng/ml.

For “imm3bex: SDKKGFYKKKQCRPSKGRKRGFCWSVDK with C-lig bexarotene (RXR ligand) (SDKKGFYKKKQCRPSKGRKRGFCWSVDK-{bexarotene″}; cysteine pairing not given here)”, the “CK (units/mg)” value (C2C12 myoblast cell line) was 121.0 ± 6.6.

In the case of “IM3dec: (decanoic)-KKGFYKKKQCRPSKGRKRGFCW, N-lig PPARγ (Decanoyl-KKGFYKKKQCRPSKGRKRGFCW; cysteine pairing not given here)”, the COL1 ng/ml (HFF-1 cell line) is reported as 0.41 ± 0.11* ng/ml.

For “imm3fxr-bex: fxr-SDKKGFYKKKQCRPSKGRKRGFCWSVDK-[bex]: GW4064 at N-terminus, bexarotene at C-terminus; multisynchron ({GW4064″}-SDKKGFYKKKQCRPSKGRKRGFCWSVDK-{bexarotene″}; cysteine pairing not given here)”, the “performance in cell culture assays” value (C2C12 myoblast cell line; single peptide compared with combination of imm3fxr and imm3bex) was “performs as predicted from the performance of the combination of imm3fxr and imm3bex episynchrons”.

For `CN1c2ccccc2N=C(c2ccc(C(=O)O)cc2)c2cc3c(cc21)C(C)(C)CCC3(C)C` [HX600], the “percent survival of cells, A375” value (A375) was 57.1 ± 0.6 a percent, the “percent survival of cells, A549” value (A549) was 60.0 ± 0.6 a percent and the “percent survival of cells, HuT78” value (HuT78) was 48.7 ± 2.8 a percent.
